Data as given in patent US20120071401A1, “AMYLIN AGONIST COMPOUNDS FOR ESTROGEN-DEFICIENT MAMMALS” (Amylin Pharamaceuticals, Inc., priority 2009, published 2012).

Columns and labels:
[1] = human subjects; cited from earlier work
in vivo = details: rat, 50 ug/kg/d; for level at 672 h: Plasma amylin
Experimental: Amylin infusion to lean or obese, diabetic ZDF rats. Obese diabetic female ZDF rats (Charles River Laboratories) were maintained on 32% kcal/fat purified diet for approximately 6 weeks, and at 10 weeks of age were sorted into two weight-matched groups. One group was subjected to a bilateral ovariectomy (n=12) or SHAM surgery (n=12). Two weeks post-surgery rats were implanted with a single osmotic minipump (Alzet model 2ML4, Durect Corporation) delivering either vehicle or rat amylin (50 ug/kg/d) to half of each surgical group for 28 days. Lean (mean body weight 226±3 g) ZDF controls (Charles River) maintained on standard laboratory rodent chow (LM-485, 5% kcal/fat; Harlan Teklad) were sorted into weight-matched groups and implanted with a single osmotic minipump (Alzet model 2ML4, Durect Corporation) delivering either vehicle (n=9) or rat amylin (50 ug/kg/d; n=9) for 28 days. For both studies food intake and body weight were monitored weekly, and body composition was assessed at baseline and termination using NMR (Echo Medical Systems). After 28 days rats were euthanized by isoflurane overdose and cardiac blood collected.
Plasma metabolite analyses. Terminal plasma insulin (Crystal Chem Inc., Downer's Grove, Ill.), and leptin, total adiponectin and total ghrelin (Millipore, Billerica, […].) levels were measured using commercially available ELISA. Plasma glucose, triglyceride, and total cholesterol levels were measured using an Olympus bioanalyzer (Olympus America Diagnostics, Center Valley, Pa.). Plasma amylin levels were measured using an internal IEMA.

[2] = DIO rats, leptin dose alone; cited from earlier work

For `CC[C@H](C)[C@H](NC(=O)[C@@H]1CCCN1C(=O)CNC(=O)[C@H](Cc1ccccc1)NC(=O)[C@H](CC(N)=O)NC(=O)[C@H](CC(N)=O)NC(=O)[C@H](CO)NC(=O)[C@H](CO)NC(=O)[C@H](Cc1c[nH]cn1)NC(=O)[C@@H](NC(=O)[C@H](CC(C)C)NC(=O)[C@H](Cc1ccccc1)NC(=O)[C@H](CC(N)=O)NC(=O)[C@H](C)NC(=O)[C@H](CC(C)C)NC(=O)[C@H](CCCNC(=N)N)NC(=O)[C@H](CCC(N)=O)NC(=O)[C@@H](NC(=O)[C@H](C)NC(=O)[C@@H]1CSSC[C@H](NC(=O)[C@@H](N)CCCCN)C(=O)N[C@@H](CC(N)=O)C(=O)N[C@@H]([C@@H](C)O)C(=O)N[C@@H](C)C(=O)N[C@@H]([C@@H](C)O)C(=O)N1)[C@@H](C)O)C(C)C)C(=O)N[C@@H](CC(C)C)C(=O)N1CCC[C@H]1C(=O)N1CCC[C@H]1C(=O)N[C@H](C(=O)N[C@@H](CC(N)=O)C(=O)N[C@H](C(=O)NCC(=O)N[C@@H](CO)C(=O)N[C@@H](CC(N)=O)C(=O)N[C@H](C(=O)N[C@@H](Cc1ccc(O)cc1)C(N)=O)[C@@H](C)O)C(C)C)[C@@H](C)O` [pramlintide], the “Food intake and body weight” value [1] is listed as “reduced food intake and body weight”.

With `CC(C)C[C@H](NC(=O)[C@H](CC(N)=O)NC(=O)[C@H](CC(N)=O)NC(=O)[C@H](CO)NC(=O)[C@H](CO)NC(=O)[C@H](CCCNC(=N)N)NC(=O)[C@@H](NC(=O)[C@H](CC(C)C)NC(=O)[C@H](Cc1ccccc1)NC(=O)[C@H](CC(N)=O)NC(=O)[C@H](C)NC(=O)[C@H](CC(C)C)NC(=O)[C@H](CCCNC(=N)N)NC(=O)[C@H](CCC(N)=O)NC(=O)[C@@H](NC(=O)[C@H](C)NC(=O)[C@@H]1CSSC[C@H](NC(=O)[C@@H](N)CCCCN)C(=O)N[C@@H](CC(N)=O)C(=O)N[C@@H]([C@@H](C)O)C(=O)N[C@@H](C)C(=O)N[C@@H]([C@@H](C)O)C(=O)N1)[C@@H](C)O)C(C)C)C(=O)NCC(=O)N1CCC[C@H]1C(=O)N[C@H](C(=O)N[C@@H](CC(C)C)C(=O)N1CCC[C@H]1C(=O)N1CCC[C@H]1C(=O)N[C@H](C(=O)N[C@@H](CC(N)=O)C(=O)N[C@H](C(=O)NCC(=O)N[C@@H](CO)C(=O)N[C@@H](CC(N)=O)C(=O)N[C@H](C(=O)N[C@@H](Cc1ccc(O)cc1)C(N)=O)[C@@H](C)O)C(C)C)[C@@H](C)O)C(C)C` [rat amylin] the level at 672 h (in vivo; ZDF (lean controls)) was 3.43 ± 0.392 ng/mL, the Plasma amylin (in vivo; female, ZDF (obese diabetic), 672 h) was 3279 ± 430 pg/mL and the level at 672 h (in vivo; female, ZDF (obese diabetic)) was 3.45 ± 0.401 ng/mL.

B1: leptin (protein, UniProt P50596 22-167, looked up)
Leptin: VPIHKVQDDTKTLIKTIVTRINDISHTQSVSARQRVTGLDFIPGLHPILSLSKMDQTLAVYQQILTSLPSQNVLQIAHDLENLRDLLHLLAFSKSCSLPQTRGLQKPESLDGVLEASLYSTEVVALSRLQGSLQDILQQLDLSPEC
notes: long term signal of adiposity; acts synergistically with amylin in DIO rats
In the case of B1, the Reducing body weight [2] is given as “ineffective”.
